The source of these data is patent US20230077362A1 (CORTEVA AGRISCIENCE LLC, priority 2019, published 2023).

In test [1] the test system is Beet Armyworm (Spodoptera exigua) ("BAW"), second instar larvae. Briefly: Bioassay on beet armyworm (BAW), 128-well diet tray assay. The settings on record: Spodoptera exigua. Type of test: in vivo. Summed up:
(§1)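 Each value represents average percent mortality from eight wells. Larvae were kept in clear-covered trays at 25° C. for five to seven days on a 14-hour light, 10-hour dark schedule before scoring.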

Test [2] concerns Cabbage Looper (Trichoplusia ni) ("CL"), second instar larvae. Briefly: Bioassay on cabbage looper (CL), 128-well diet tray assay. Type of test: in vivo. The settings on record: Trichoplusia ni. Summed up: as §1
The mark [3] stands for this setting: read-out: BAW (Biological Results, rating).
The mark [4] stands for this setting: read-out: CL (Biological Results, rating).

Where two headings read alike, the source gives them in different places.

Turning to `CCCCc1ccc(OC)cc1N1C(=O)CS/C1=N\C(=O)Nc1ccc(-c2ncn(-c3ccc(OC(F)(F)F)cc3)n2)cc1F` [Compound J45, (Z)-1-(3-(2-Butyl-5-methoxyphenyl)-4-oxothiazolidin-2-ylidene)-3-(2-fluoro-4-(1-(4-(trifluoromethoxy)phenyl)-1H-1,2,4-triazol-3-yl)phenyl)urea], the pest or weed control at 50 µg/cm2 in test [1] (setting [3]) and in test [2] (setting [4]) was 50 to 100% in each case.

Regarding `Cc1ccc(Cc2ccccc2)c(N2C(=O)CS/C2=N\C(=O)Nc2ccc(-c3ncn(-c4ccc(C(F)(F)F)cc4)n3)cc2F)c1` [Compound J562, (Z)-1-(3-(2-Benzyl-5-methylphenyl)-4-oxothiazolidin-2-ylidene)-3-(2-fluoro-4-(1-(4-(trifluoromethyl)phenyl)-1H-1,2,4-triazol-3-yl)phenyl)urea], the pest or weed control at 50 µg/cm2 in test [1] (read-out: BAW rating) and in test [2] (read-out: CL rating) was 50 to 100% each time.

Take `COc1ccc(C(C)C)c(N2C(=O)CS/C2=N\C(=O)Nc2ccc(-c3ncn(-c4ccc(C(F)F)cn4)n3)cc2F)c1` [Compound J355]: the pest or weed control at 50 µg/cm2 in test [1] (setting [3]) and in test [2] (setting [4]) was 50 to 100% each time.

Consider `CCOCc1ccc(C)cc1N1C(=O)CS/C1=N\C(=O)Nc1ccc(-c2ncn(-c3ccc(OC)cc3)n2)cc1F` [Compound J755, (Z)-1-(3-(2-(Ethoxymethyl)-5-methylphenyl)-4-oxothiazolidin-2-ylidene)-3-(2-fluoro-4-(1-(4-methoxyphenyl)-1H-1,2,4-triazol-3-yl)phenyl)urea], for which the pest or weed control at 50 µg/cm2 in test [1] (read-out: BAW rating) and in test [2] (read-out: CL rating) was 50 to 100% in each case.

On to `N#CC(CNC(=O)/N=C1\SCC(=O)N1c1cc(Cl)ccc1C(F)(F)F)c1ccc(-c2ncn(-c3ccc(OC(F)(F)F)cc3)n2)cc1` (stereo not drawn) [Compound H8, (Z)-1-(3-(5-chloro-2-(trifluoromethyl)phenyl)-4-oxothiazolidin-2-ylidene)-3-(2-cyano-2-(4-(1-(4-(trifluoromethoxy)phenyl)-1H-1,2,4-triazol-3-yl)phenyl)ethyl)urea], for which the pest or weed control at 50 µg/cm2 in test [1] (setting [3]) and in test [2] (setting [4]) was 50 to 100% each time.

Consider `Cc1ccc(OCCC(F)(F)F)c(N2C(=O)CS/C2=N\C(=O)Nc2ccc(-c3ncn(-c4ccc(C(F)(F)F)cn4)n3)cc2C(F)(F)F)c1` [Compound J305, (Z)-1-(3-(5-Methyl-2-(3,3,3-trifluoropropoxy)phenyl)-4-oxothiazolidin-2-ylidene)-3-(2-(trifluoromethyl)-4-(1-(5-(trifluoromethyl)pyridin-2-yl)-1H-1,2,4-triazol-3-yl)phenyl)urea], for which the pest or weed control at 50 µg/cm2 in test [1] (setting [3]) and in test [2] (setting [4]) was 50 to 100% throughout.

As to `Cc1ccc(COCC(Cl)Cl)c(N2C(=O)CS/C2=N\C(=O)Nc2ccc(-c3ncn(-c4ccc(OC(F)(F)F)cc4)n3)cc2C)c1` [Compound J555], the pest or weed control at 50 µg/cm2 in test [1] (read-out: BAW rating) and in test [2] (read-out: CL rating) was 50 to 100% each time.

Turning to `COc1ccc(C(C)C)c(N2C(=O)CS/C2=N\C(=O)Nc2ccc(-c3ncn(-c4ccc(OCC(F)(F)F)cc4)n3)cc2F)c1` [Compound J58, (Z)-1-(2-Fluoro-4-(1-(4-(2,2,2-trifluoroethoxy)phenyl)-1H-1,2,4-triazol-3-yl)phenyl)-3-(3-(2-isopropyl-5-methoxyphenyl)-4-oxothiazolidin-2-ylidene)urea], the pest or weed control at 50 µg/cm2 in test [1] (setting [3]) and in test [2] (setting [4]) was 50 to 100% each time.

Consider `CCc1ccc(C)cc1N1C(=O)CS/C1=N\C(=O)Nc1ccc(-c2ncn(-c3ccc(OC(F)(F)C(F)(F)F)cc3)n2)c(C)c1` [Compound J14, (Z)-1-(3-(2-Ethyl-5-methylphenyl)-4-oxothiazolidin-2-ylidene)-3-(3-methyl-4-(1-(4-(perfluoroethoxy)phenyl)-1H-1,2,4-triazol-3-yl)phenyl)urea], for which the pest or weed control at 50 µg/cm2 in test [1] (setting [3]) and in test [2] (setting [4]) was 50 to 100% throughout.
